The values below come from patent publication US9249152B2, “Cyano containing azabenzofuran compounds for the treatment of hepatitis C” (BRISTOL-MYERS SQUIBB COMPANY, priority 2014, dated 2016).

pEC50: −log10 of the molar value. Read-outs that look alike come from different tables or passages of the source.

For data set [1], the system named is genotype 1b (Con-1) HCV replicon. As to the kind of experiment: HCV replicon luciferase assay, genotype 1b (Con-1). In kind it is cell-based. As to conditions: Hepatitis C virus, Huh-7, 72 h, genotype 1b HCV replicon, Huh-7 cells, Renilla luciferase, 3 days; for pEC50: read-out: EC50 1b (class); for EC50: read-out: EC50 (uM) 1b. The protocol: The cell lines used to evaluate compounds consist of a human hepatocyte derived cell line (Huh-7) that constitutively expresses a genotype 1b (Con-1) HCV replicon or a genotype 1b (Con-1) HCV replicon with an asparagine replacing the cysteine at amino acid 316, or a genotype 2a (JFH-1) replicon, containing a Renilla luciferase reporter gene. These cells were maintained in Dulbecco's modified Eagle medium (DMEM) containing 10% FBS, 100 U/mL penicillin/streptomycin and 1.0 mg/mL G418.
To evaluate compound efficacy, titrated compounds were transferred to sterile 384-well tissue culture treated plates, and the plates were seeded with HCV replicon cells (50 μL at a density of 2.4×10^3 cells/well) in DMEM containing 4% FBS (final DMSO concentration at 0.5%). After 3 days incubation at 37° C., cells were analyzed for Renilla Luciferase activity using the EnduRen substrate (Promega cat #E6485) according to the manufacturer's directions. Briefly, the EnduRen substrate was diluted in DMEM and then added to the plates to a final concentration of 7.5 μM. The plates were incubated for at least 1 h at 37° C. then read on a Viewlux Imager (PerkinElmer) using a luminescence program. The 50% effective concentration (EC50) was calculated using the four-parameter logistic formula noted above.

In data set [2] the test system is HCV replicon 1a. As to the kind of experiment: HCV replicon luciferase assay, genotype 1a. It is filed as cell-based. As to conditions: Hepatitis C virus.
Data set [3] concerns HCV. The note with it: cited from earlier work.

As to `CNC(=O)c1c(-c2ccc(F)cc2)oc2nc(NCC(F)(F)C(F)(F)F)c(-c3cccc(C(=O)NC(C)(C)C#N)c3)cc12` [Compound 30001], the pEC50 in data set [1] is more than 7.00.

Take `CNC(=O)c1c(-c2ccc(F)cc2)oc2nc(NCC(F)(F)C(F)(F)F)c(-c3cccc(C(=O)NC(C)(C#N)C(C)C)c3)cc12` (stereo not shown) [Compound 30002]: in data set [1], the pEC50 is more than 7.00 and the EC50 worked out at 0.0394 µM.

As for `CNC(=O)c1c(-c2ccc(F)cc2)oc2nc(NCC(F)(F)C(F)(F)F)c(-c3cccc(C(=O)NC4(C#N)CCCC4)c3)cc12` [Compound 30003], in data set [1], the pEC50 was more than 7.00.

With `CNC(=O)c1c(-c2ccc(F)cc2)oc2nc(NCC(F)(F)C(F)(F)F)c(-c3ccc(OC)c(C(=O)NC(C)(C#N)C(C)C)c3)cc12` (stereo not shown) [Compound 31001], the pEC50 in data set [1] was more than 7.00.

As to `CNC(=O)c1c(-c2ccc(F)cc2)oc2nc(NCC(F)(F)C(F)(F)F)c(-c3ccc(OC)c(C(=O)NC(C)(C#N)C4CC4)c3)cc12` (stereo not shown) [Compound 31002], in data set [1], the pEC50 was more than 7.00 and the EC50 was found to be 0.0061 µM.

In the case of `CNC(=O)c1c(-c2ccc(F)cc2)oc2nc(NCCO)c(-c3cccc(C(=O)NC(C)(C)C#N)c3)cc12` [Compound 40001], the pEC50 in data set [1] was more than 7.00.

For `CNC(=O)c1c(-c2ccc(F)cc2)oc2nc(CCC(F)(F)F)c(-c3ccc(F)c(C(=O)NC4(C#N)CC4)c3)cc12` [Compound K1001], in data set [1], the pEC50 is more than 7.00 and the EC50 was 0.0061 µM.

As to `CNC(=O)c1c(-c2ccc(F)cc2)oc2nc(CCC(F)(F)F)c(-c3ccc(F)c(C(=O)NC4(C#N)CCC4)c3)cc12` [Compound K1002], the pEC50 in data set [1] was more than 7.00.

On to `CNC(=O)c1c(-c2ccc(F)cc2)oc2nc(CCC(F)(F)F)c(-c3ccc(F)c(C(=O)NC(C)(C)C#N)c3)cc12` [Compound K1003], for which the pEC50 in data set [1] was more than 7.00.

For the compound `CNC(=O)c1c(-c2ccc(F)cc2)oc2nc(NCC(F)(F)F)c(-c3ccc(F)c(C(=O)NC(C)(C)C#N)c3)cc12` [Compound K2001], in data set [1], the pEC50 is more than 7.00.

For `CNC(=O)c1c(-c2ccc(F)cc2)oc2nc(NCC(F)(F)F)c(-c3ccc(F)c(C(=O)NC4(C#N)CC4)c3)cc12` [Compound K2002], in data set [1], the pEC50 is more than 7.00 and the EC50 is 0.0034 µM.

`CNC(=O)c1c(-c2ccc(F)cc2)oc2nc(NCC(F)(F)F)c(-c3ccc(F)c(C(=O)NC4(C#N)CCC4)c3)cc12` [Compound K2003]: the pEC50 in data set [1] was more than 7.00.

As for `CNC(=O)c1c(-c2ccc(F)cc2)oc2nc(NCC(F)(F)F)c(-c3ccc(F)c(C(=O)NC4(C#N)CCCC4)c3)cc12` [Compound K2004], the pEC50 in data set [1] was more than 7.00.

In the case of `CNC(=O)c1c(-c2ccc(F)cc2)oc2nc(NCC(F)(F)F)c(-c3ccc(F)c(C(=O)NC(C)(C#N)C(C)C)c3)cc12` (stereo not shown) [Compound K2005], the pEC50 in data set [1] was more than 7.00.

Regarding `CNC(=O)c1c(-c2ccc(F)cc2)oc2nc(NCC(F)(F)F)c(-c3cccc(C(=O)NC4(C#N)CCCC4)c3)cc12` [Compound K4001], the pEC50 in data set [1] is more than 7.00.

In the case of `CNC(=O)c1c(-c2ccc(F)cc2)oc2nc(NCC(F)(F)F)c(-c3cccc(C(=O)NC4(C#N)CCC4)c3)cc12` [Compound K4002], the pEC50 in data set [1] was more than 7.00.

For the compound `CNC(=O)c1c(-c2ccc(F)cc2)oc2nc(NCC(F)(F)F)c(-c3cccc(C(=O)NC4(C#N)CC4)c3)cc12` [Compound K4003], in data set [1], the pEC50 is more than 7.00 and the EC50 was 0.0043 µM.

As for `CNC(=O)c1c(-c2ccc(F)cc2)oc2nc(NCC(F)(F)F)c(-c3cccc(C(=O)NC(C)(C#N)C(C)C)c3)cc12` (stereo not shown) [Compound K4004], in data set [1], the pEC50 was more than 7.00 and the EC50 is 0.004 µM.

For `CNC(=O)c1c(-c2ccc(F)cc2)oc2nc(NCC(F)(F)F)c(-c3ccc(OC)c(C(=O)NC4(C#N)CCC4)c3)cc12` [Compound K5001], the pEC50 in data set [1] is more than 7.00.

As to `CNC(=O)c1c(-c2ccc(F)cc2)oc2nc(NCC(F)(F)F)c(-c3ccc(OC)c(C(=O)NC4(C#N)CC4)c3)cc12` [Compound K5002], the pEC50 in data set [1] is more than 7.00.

As to `CNC(=O)c1c(-c2ccc(F)cc2)oc2nc(NCC(F)(F)F)c(-c3ccc(OC)c(C(=O)NC4(C#N)CCCC4)c3)cc12` [Compound K5003], the pEC50 in data set [1] is more than 7.00.

As to `CNC(=O)c1c(-c2ccc(F)cc2)oc2nc(NCC(F)(F)F)c(-c3ccc(OC)c(C(=O)NC(C)(C#N)C(C)C)c3)cc12` (stereo not shown) [Compound K5004], in data set [1], the pEC50 was more than 7.00 and the EC50 amounted to 0.0028 µM.

As for `CNC(=O)c1c(-c2ccc(F)cc2)oc2nc(CCC(F)(F)F)c(-c3ccc(OC)c(C(=O)NC4(C#N)CC4)c3)cc12` [Compound K6001], the pEC50 in data set [1] was more than 7.00.

Turning to `CNC(=O)c1c(-c2ccc(F)cc2)oc2nc(CCC(F)(F)F)c(-c3cnc(OC)c(C(=O)NC(C)(C)C#N)c3)cc12` [Compound K7001], the pEC50 in data set [1] was more than 7.00.

For `CNC(=O)c1c(-c2ccc(F)cc2)oc2nc(CCC(F)(F)F)c(-c3cnc(OC)c(C(=O)NC4(C#N)CC4)c3)cc12` [Compound K7003], the pEC50 in data set [1] is more than 7.00.

On to `CNC(=O)c1c(-c2ccc(F)cc2)oc2nc(CCC(F)(F)F)c(-c3cnc(OC)c(C(=O)NC4(C#N)CCCC4)c3)cc12` [Compound K7004], for which the pEC50 in data set [1] was more than 7.00.

`CNC(=O)c1c(-c2ccc(F)cc2)oc2nc(CCC(F)(F)F)c(-c3cnc(OC)c(C(=O)NC(C)(C#N)C(C)C)c3)cc12` (stereo not shown) [Compound K7005]: in data set [1], the pEC50 was more than 7.00 and the concentration giving a half-maximal response (EC50) came out at 0.0028 µM.

For `CNC(=O)c1c(-c2ccc(F)cc2)oc2nc(NCC(F)(F)F)c(-c3cnc(OC)c(C(=O)NC(C)(C)C#N)c3)cc12` [Compound K8001], the pEC50 in data set [1] was more than 7.00.

In the case of `CNC(=O)c1c(-c2ccc(F)cc2)oc2nc(NCC(F)(F)F)c(-c3cnc(OC)c(C(=O)NC4(C#N)CC4)c3)cc12` [Compound K8003], the pEC50 in data set [1] was more than 7.00.

For the compound `CNC(=O)c1c(-c2ccc(F)cc2)oc2nc(OCC(F)(F)F)c(-c3cccc(C(=O)NC(C)(C)C#N)c3)cc12` [Compound K9001, 5-(3-((2-cyanopropan-2-yl)carbamoyl)phenyl)-2-(4-fluorophenyl)-N-methyl-6-(2,2,2-trifluoroethoxy)furo[2,3-b]pyridine-3-carboxamide], the figures for the pEC50 in data set [2] (read-out: EC50 for 1a instead) and in data set [2] (read-out: EC50 for 1a instead (class)) were 7.75 and more than 7.00, respectively.

As to `CC[C@H](C)c1nc2oc(-c3ccc(F)cc3)c(C(=O)NC)c2cc1-c1cccc(C(=O)NC(C)(C)C#N)c1` [Compound K11001], in data set [1], the pEC50 was more than 7.00 and the EC50 is 0.0133 µM.

Regarding `CC[C@@H](C)c1nc2oc(-c3ccc(F)cc3)c(C(=O)NC)c2cc1-c1cccc(C(=O)NC(C)(C)C#N)c1` [Compound K11002], in data set [1], the pEC50 is more than 7.00 and the EC50 came out at 0.0044 µM.

On to `CNC(=O)c1c(-c2ccc(F)cc2)oc2cc(N(CCO)S(C)(=O)=O)c(C3CC3)cc12` [HCV-796], for which the hepatic toxicity entry in data set [3] (extended dosing of the combination regimens) was “hepatic toxicity observed during extended dosing of the combination regimens”. The “HCV RNA levels in patients” value in data set [3] (patients, single agent or combined with interferon and ribavirin) is recorded as “reduce HCV RNA levels in patients”.

In the case of alpha-interferon and ribavirin, the “sustained efficacy, share of patients” value in data set [3] (patients) is 40%.
